Columns and labels:
TNF-α production = TNF-α production in cell culture supernatant (ELISA); format: cell-based, mouse; settings: FIG. 3B
Experimental: (§1) Cytokine quantification. IL-1β in cell supernatants and brain tissue samples—after the different treatment groups—was quantified using the Mouse IL-1 beta/IL-1F2 DuoSet ELISA kit (R&D systems), IL-6 in cell culture supernatant was measured through the Mouse IL-6 ELISA kit (ThermoFisher), TNF-α in cell culture supernatants was determined using the Mouse TNF-alpha DuoSet ELISA (R*D systems), and IL-18 in brain tissue was measured through the IL-18 Mouse ELISA Kit (Invitrogen) following the manufacturers' recommended protocol. IL-1β precursor and cleaved IL-1β in the FC of mice treated with vehicles, LPS, or C77-LPS was assessed by western blot. All samples were run in technical duplicates.

AIM2 inflammasome = biological target: T1, AIM2 inflammasome (Mus musculus, UniProt Q91VJ1); assay: AIM2 inflammasome activation assay: IL-1β release, microglia from NLRP3 KO mice, LPS and poly(dA:dT); format: cell-based
T1 construct: endogenous in cells; host or cells: primary microglia from NLRP3 KO mice
T1 sequence (Q91VJ1 1-354): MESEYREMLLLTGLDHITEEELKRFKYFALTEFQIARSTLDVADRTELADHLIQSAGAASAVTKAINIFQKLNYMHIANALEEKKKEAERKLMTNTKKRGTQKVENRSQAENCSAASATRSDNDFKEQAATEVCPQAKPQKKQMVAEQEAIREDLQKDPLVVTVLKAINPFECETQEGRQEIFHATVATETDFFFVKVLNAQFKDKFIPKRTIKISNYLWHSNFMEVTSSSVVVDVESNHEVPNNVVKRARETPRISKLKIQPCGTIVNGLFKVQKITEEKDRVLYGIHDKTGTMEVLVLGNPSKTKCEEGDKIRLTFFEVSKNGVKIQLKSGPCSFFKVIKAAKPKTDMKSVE
Experimental: AIM2, NLRP7, and NLRC4 inflammasomes activation assays. Microglia from NLRP3 KO mice were pre-treated with 100 μM C75, C78, C97, or C77, during one hour. AIM2 inflammasome activation was induced through the addition of 100 ng/ml LPS for 2 hours, followed by transfection of 1 μg poly(dA:dT) using Lipofectamine 2000 during 2 hours, following the manufacturer recommendations. NLRC4 was activated by treatment with 150 ng/ml LPS for 2 hours, before transfection of 1 μg flagellin during 2 hours, using lipofectamine 2000 as transfection reagent. Negative and positive controls were pre-treated with the same DMSO percentage as cells treated with the inhibitors. Negative controls were kept untreated after DMSO addition, while LPS-poly(dA:dT) or LPS-flagellin was added to positive controls for AIM2, and NLRC4 activation, respectively. For activation of the NLRP7 inflammasome different conditions were assessed: treatment of WT microglia cultures with 400 ng/ml fibroblast-stimulating lipopeptide-1 (fsl-1) for 7 hours, priming with 150 ng/ml LPS for 1 hour and treatment with 400 ng/ml fsl-1 for 7 hours, and priming with 150 ng/ml LPS and transfection of 400 ng/ml fsl-1 with lipofectamine. MCC950 was used as a negative control for NLRC4 and AIM-2 inhibition. […]
Cytokine quantification. […] IL-1β precursor and cleaved IL-1β in the FC of mice treated with vehicles, LPS, or C77-LPS was assessed by western blot. […]

IL6 production = assay: IL-6 production in cell culture supernatant (ELISA); format: cell-based, mouse; settings: FIG. 3B
Experimental: as §1

[1] = tested on: ASC specks following NLRP3 activation; assay: ASC speck formation / ASC oligomerization in m-Cerulean ASC labeled macrophages; format: cell-based, murine; settings: NLRP3 activation with LPS and ATP or HMGB1 and ATP (FIG. 3F)
Experimental: m-Cerulean ASC labeled macrophages. NLRP3 Knock Out immortalized murine macrophages, stably expressing m-Cerulean-ASC, and NLRP3-Flag were a kind donation of Prof. Eicke Latz, (Institute of Innate Immunity, University of Bonn, Germany). Murine macrophages were maintained in high glucose DMEM medium supplemented with 10% FBS, 1% sodium pyruvate, and passaged every 2-3 days, before reaching confluence.
For ASC speck formation evaluation, murine macrophages were seeded in 96 well SCREENSTAR black microplates with clear base, 24 hours before stimulation. Then, cells were incubated for 1 hour with different concentrations of the inhibitors, or with the same DMSO volume for positive and negative controls for NLRP3 activation—DMSO-LPS-ATP or only DMSO, respectively. 0.5 μM MCC950 was used as a positive control for inhibition of NLRP3-mediated ASC oligomerization. NLRP3 activation was induced through treatment with 250 ng/ml LPS for 2.5 hours, followed by addition of 4.5 mM ATP for 45 min. Cells were then fixed and counterstained in a single step, as previously described (Stutz, A. et al. ASC Speck Formation as a Readout for Inflammasome Activation. in The Inflammasome (eds. De Nardo, C. M. & Latz, E.) vol. 1040 91-101 (Humana Press, 2013).). For that, a stock solution of DRAQS in formaldehyde was used, being the final concentrations 1% formaldehyde and 2.5 μM DRAQ5.
ASC oligomerization determination. […] ASC specks in cells pretreated with C75, C77, C78, and C97, before NLRP3 activation (as above indicated), were visualized with a widefield Leica DMi8 fluorescence microscope, using the 20× objective. […] For image analysis and speck quantification, ImageJ was used https://imagej.nih.gov/ij/index.html. Speck and nuclei quantification was performed as previously described in Stutz et al. When required (overlapping nuclei), the watershed separation algorithm was used to separate the particles. […] The rate of speck positive cells was calculated by normalizing the number of speck positive cells to the number of nuclei. […]

inhibition of AIM2-mediated IL-1β release (AIM2 inflammasome): did not inhibit
Compound: O=C(Cn1c(=O)oc2ccccc21)NCc1cncc(-c2ccsc2)c1 [Compound C77]
inhibition of TNF-α production (TNF-α production): did not inhibit
inhibition of IL6 production (IL6 production): did not inhibit
concentrations with observable reduction of speck positive cells [1]: ≥ 10 nM
